Earlier results in patent publication US7834258B2, “Dimer of chimeric recombinant binding domain-functional group fusion formed via disulfide-bond-bridge and the processes for producing the same” (priority 2003, dated 2010).

Tested on: H2981 human lung adenocarcinoma cells

Row | SMILES | IC50 (H2981 human lung adenocarcinoma cells, read-out: ID50 (the source's name)) | cytotoxicity (H2981 cells, 200 uM concentration)
1 | O=c1[nH]cc(F)c(=O)[nH]1 [5-FU, 5-Fluorouracil] | 20 µM | –
2 | Nc1nc(=O)[nH]cc1F [5-FC, 5-Fluorocytosine] | – | no effect
